# Tests used:
# RIPK1 = RIPK1 (Homo sapiens (Human), UniProt Q13546); test: In vitro kinase assay (Eurofins Kinase Profiler), IC50; type: biochemical; settings: 0.001-10 μM, read-out: RIPK 1 (IC50)
# Protocol: In vitro kinase assays were conducted using Kinase Profiler services provided by Eurofins. The experimental method was as follows: the small molecule compound to be tested (0.001-10 μM), the protein kinase to be tested were incubated with a buffer containing substrate, 10 mM magnesium acetate, and [γ-^33P-ATP], the reaction was started by adding Mg\TPmix, after incubation for a period of time at room temperature, a 3% phosphate solution was added to the buffer to stop the reaction. Subsequently, 10 μL of the reaction mixture was quantitatively pipetted onto P30 filter paper, which was washed three times with 75 mM phosphate solution and then once with methanol. The P30 filter paper was air-dried and scintillation fluid was added for scintillation counting.
# HT-29 cells = test: Protection against programmed necrosis of HT-29 cells (TNF α/Smac mimetic/Z-VAD-FMK, CCK8); type: cell-based; settings: Homo sapiens, TNF α/Smac mimetic/Z-VAD-FMK induced 24 h, CCK8, read-out: HT-29 (EC50)
# Chain of RIPK1 (Q13546 whole entry): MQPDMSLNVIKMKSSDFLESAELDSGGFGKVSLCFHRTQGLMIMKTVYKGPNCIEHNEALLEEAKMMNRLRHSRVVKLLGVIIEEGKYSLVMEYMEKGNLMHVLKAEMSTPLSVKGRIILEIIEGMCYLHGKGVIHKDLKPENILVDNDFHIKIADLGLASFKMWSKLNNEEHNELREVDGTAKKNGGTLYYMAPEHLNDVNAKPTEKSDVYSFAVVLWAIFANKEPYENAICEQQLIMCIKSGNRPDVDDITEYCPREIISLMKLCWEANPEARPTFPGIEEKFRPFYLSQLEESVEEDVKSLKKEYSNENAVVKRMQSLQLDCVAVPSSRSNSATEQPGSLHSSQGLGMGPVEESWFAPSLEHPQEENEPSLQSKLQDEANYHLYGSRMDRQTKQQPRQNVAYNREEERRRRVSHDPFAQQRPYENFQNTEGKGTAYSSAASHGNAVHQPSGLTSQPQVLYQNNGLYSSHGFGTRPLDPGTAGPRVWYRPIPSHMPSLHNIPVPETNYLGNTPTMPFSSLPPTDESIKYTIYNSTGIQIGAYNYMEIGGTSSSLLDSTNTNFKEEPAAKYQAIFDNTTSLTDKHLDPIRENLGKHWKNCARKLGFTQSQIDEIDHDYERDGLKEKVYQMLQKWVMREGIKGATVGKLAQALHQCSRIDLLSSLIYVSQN
SMILES,IC50 (RIPK1) [nM],EC50 (HT-29 cells) [nM]
COc1ccc(CNC(=O)c2c[nH]c3ncc(-c4ccc5nc(NC(=O)C6CC6)sc5c4)cc23)cc1OC [Compound 64],100 to 1000,10 to 100
COc1ccc([C@H](C)NC(=O)c2c[nH]c3ccc(-c4ccc5nc(NC(=O)C6CC6)sc5c4)cc23)cc1 [Compound 33],10 to 100,< 1
CCn1cc(C(=O)N[C@H](c2ccc(F)cc2)C2CC2)c2cc(-c3ccn4nc(NC(=O)CN(C)C)nc4c3)ccc21 [Compound 210],10 to 100,< 1
C[C@H](NC(=O)c1cn(C)c2ccc(-c3ccn4nc(NC(=O)C5CC5)nc4c3)cc12)c1ccncc1 [Compound 176],100 to 1000,100 to 1000
C[C@H](NC(=O)c1c[nH]c2ncc(-c3ccc(N4CCOCC4)cc3)cc12)c1cccc(F)c1 [Compound 76],100 to 1000,100 to 1000
Cn1cc(C(=O)NCc2ccc(N3CCOCC3)cc2)c2cc(-c3ccn4nc(NC(=O)C5CC5)nc4c3)ccc21 [Compound 98],≥ 1000,≥ 1000
C[C@H](NC(=O)c1cn(C)c2ccc(-c3cc[nH]n3)cc12)c1cccc(F)c1 [Compound 78],≥ 1000,100 to 1000
C[C@H](NC(=O)c1cn(C)c2ccc(-c3ccn4nc(NC(=O)N5CC[C@H](O)C5)nc4c3)cc12)c1cccc(F)c1 [Compound 163],100 to 1000,10 to 100
CC(C)c1ccc(CNC(=O)c2c[nH]c3ccc(-c4ccc5nc(NC(=O)C6CC6)sc5c4)cc23)cc1 [Compound 28],100 to 1000,≥ 1000
C[C@H](NC(=O)c1cn(C)c2ccc(-c3ccc4c(NC(=O)C5CC5)c[nH]c4c3)cc12)c1cccc(F)c1 [Compound 117],10 to 100,10 to 100
Cn1cc(C(=O)NCc2ccc(N3CCOCC3)cc2)c2cc(-c3ccc4nc(NC(=O)C5CC5)sc4n3)ccc21 [Compound 100],≥ 1000,≥ 1000
C[C@H](NC(=O)c1cn(C)c2ccc(-c3ccn4nc(NC(=O)N5CC(O)C5)nc4c3)cc12)c1cccc(F)c1 [Compound 172],≥ 1000,100 to 1000
C[C@H]1CC[C@@H](c2ccc(F)cc2)N1C(=O)c1cn(C)c2ccc(-c3ccn4nc(NC(=O)C5CC5)nc4c3)cc12 [Compound 213],1 to 10,< 1
C[C@H](NC(=O)c1c[nH]c2ncc(-c3ccc(C(=O)N4CCOCC4)cc3)cc12)c1cccc(F)c1 [Compound 74],100 to 1000,100 to 1000
O=C(NCc1cc(F)cc(F)c1)c1c[nH]c2ccc(-c3ccc4nc(NC(=O)C5CC5)sc4c3)cc12 [Compound 3],10 to 100,10 to 100
C[C@@H](NC(=O)c1c[nH]c2ccc(-c3ccc4nc(NC(=O)C5CC5)sc4c3)cc12)c1cccc(F)c1 [Compound 35],100 to 1000,10 to 100
C[C@H](NC(=O)c1c[nH]c2ncc(-c3ccnn3C3CCCCO3)cc12)c1cccc(F)c1 (stereo partly shown) [Compound 75],≥ 1000,100 to 1000
CC(C)C(=O)Nc1nc2cc(-c3ccc4c(c3)c(C(=O)N[C@@H](C)c3cccc(F)c3)cn4C)ccn2n1 [Compound 106],1 to 10,< 1
Cn1cc(C(=O)NCc2cc(F)ccc2F)c2cc(-c3ccc4nc(NC(=O)C5CC5)sc4c3)ccc21 [Compound 54],10 to 100,< 1
CC(C)C(=O)Nc1nc2cc(-c3ccc4c(c3)c(C(=O)N[C@H](C)c3ccccc3)cn4C)ccn2n1 [Compound 121],10 to 100,1 to 10
C[C@H](NC(=O)c1c[nH]c2ccc(-c3ccc4nc(NC(=O)C5CCCC5)sc4c3)cc12)c1cccc(F)c1 [Compound 48],10 to 100,1 to 10
O=C(NCc1ccncc1)c1c[nH]c2ccc(-c3ccc4nc(NC(=O)C5CC5)sc4c3)cc12 [Compound 20],≥ 1000,≥ 1000
CC(C)C(=O)Nc1nc2ccc(-c3ccc4c(c3)c(C(=O)N[C@@H](C)c3cccc(F)c3)cn4C)cn2n1 [Compound 107],10 to 100,1 to 10

# Source: patent publication US20230365546A1, “5-SUBSTITUTED INDOLE 3-AMIDE DERIVATIVES, PREPARATION METHOD AND USE THEREOF” (ORIGIANT PHARMACEUTICAL CO., LTD, priority 2020, published 2023)
